Experimental data as given in patent publication US20090176807A1, “GLUCOCORTICOID MIMETICS, METHODS OF MAKING THEM, PHARMACEUTICAL COMPOSITIONS, AND USES THEREOF” (priority 2005, published 2009).

Legend:
[1] = target: T1, human glucocorticoid receptor (GR) complex (Homo sapiens, UniProt P04150); experiment: Glucocorticoid receptor competitive binding assay (fluorescence polarization); settings: competition with TAMRA-labeled dexamethasone, result in words only
T1 construct: made in house; host or cells: insect expression system (baculovirus lysate)
T1 sequence (P04150 1-777): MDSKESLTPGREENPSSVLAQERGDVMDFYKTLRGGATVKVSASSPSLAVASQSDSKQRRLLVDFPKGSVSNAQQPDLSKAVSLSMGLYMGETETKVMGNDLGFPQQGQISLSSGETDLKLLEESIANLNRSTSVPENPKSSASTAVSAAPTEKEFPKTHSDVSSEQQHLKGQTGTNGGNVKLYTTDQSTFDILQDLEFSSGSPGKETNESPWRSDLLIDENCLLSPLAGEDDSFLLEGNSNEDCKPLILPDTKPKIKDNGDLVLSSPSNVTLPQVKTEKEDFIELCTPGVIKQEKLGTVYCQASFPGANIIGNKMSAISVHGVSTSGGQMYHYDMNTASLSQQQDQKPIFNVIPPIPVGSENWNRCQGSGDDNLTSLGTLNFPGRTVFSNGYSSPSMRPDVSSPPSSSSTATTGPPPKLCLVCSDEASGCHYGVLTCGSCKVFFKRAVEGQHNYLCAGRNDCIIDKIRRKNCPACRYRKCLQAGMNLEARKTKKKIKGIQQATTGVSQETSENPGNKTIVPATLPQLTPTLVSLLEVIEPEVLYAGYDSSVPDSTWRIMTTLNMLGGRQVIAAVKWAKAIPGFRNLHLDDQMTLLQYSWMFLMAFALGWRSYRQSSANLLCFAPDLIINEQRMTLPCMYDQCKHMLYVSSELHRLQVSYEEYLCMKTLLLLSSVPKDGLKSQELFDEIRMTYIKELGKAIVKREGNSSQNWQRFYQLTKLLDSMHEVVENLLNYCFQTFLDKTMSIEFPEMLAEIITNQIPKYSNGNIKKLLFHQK
Description: Compounds of the invention were evaluated for binding to the steroid receptor by a fluorescence polarization competitive binding assay.
The wavelengths for maximum excitation and emission of the fluorescent probe should first be measured. An example of such a probe is rhodamine (TAMRA)-labeled dexamethasone.
The affinity of the probe for the steroid receptor was then determined in a titration experiment. The fluorescence polarization value of the probe in assay buffer was measured on an SLM-8100 fluorometer using the excitation and emission maximum values described above. Aliquots of expression vector lysate were added and fluorescence polarization was measured after each addition until no further change in polarization value was observed. Non-linear least squares regression analysis was used to calculate the dissociation constant of the probe from the polarization values obtained for lysate binding to the probe.
This assay uses fluorescence polarization (FP) to quantitate the ability of test compounds to compete with tetramethyl rhodamine (TAMRA)-labeled dexamethasone for binding to a human glucocorticoid receptor (GR) complex prepared from an insect expression system. The assay buffer was: 10 mM TES, 50 mM KCl, 20 mM Na2MoO4.2H2O, 1.5 mM EDTA, 0.04% w/v CHAPS, 10% v/v glycerol, 1 mM dithiothreitol, pH 7.4. Test compounds were dissolved to 1 mM in neat DMSO and then further diluted to 10× assay concentration in assay buffer supplemented with 10% v/v DMSO. Test compounds were serially diluted at 10× assay concentrations in 10% DMSO-containing buffer in 96-well polypropylene plates. Binding reaction mixtures were prepared in 96-well black Dynex microtiter plates by sequential addition of the following assay components to each well: 15 μL of 10× test compound solution, 85 μL of GR-containing baculovirus lysate diluted 1:170 in assay buffer, and 50 μL of 15 nM TAMRA-labeled dexamethasone. Positive controls were reaction mixtures containing no test compound; negative controls (blanks) were reaction mixtures containing 0.7 μM to 2 μM dexamethasone. […] IC50 values were determined by iterative non-linear curve fitting of the FP signal data to a 4-parameter logistic equation.

[2] = tested on: Human osteosarcoma MG-63 cells; experiment: Inhibition of osteocalcin production from osteoblast cell line MG-63; assay type: cell-based; settings: Vitamin D 10 nM, 48 hours, osteocalcin ELISA, result in words only
Description: Human osteosarcoma MG-63 cells (ATCC, Cat. No. CRL-1427) are plated on 96 well plates at 20,000 cells per well the day before use in 200 μL media of 99% D-MEM/F-12 (Gibco-Invitrogen, Cat. No. 11039-021), supplemented with 1% penicillin and streptomycin (Gibco-Invitrogen, Cat. No. 15140-122), 10 μg/mL Vitamin C (Sigma, Cat. No. A-4544), and 1% charcoal filtered Fetal Bovine Serum (HyClone, Cat. No. SH30068.02). The next day, wells are replaced with fresh media. Cells are treated with Vitamin D (Sigma, Cat. No. D1530) to a final concentration of 10 nM, and with the test compounds in concentrations of 10^−6 M to 10^−9 M, in a total volume of 200 μL per well. Samples are done in duplicates. […] Positive control wells receive Vitamin D only, without compounds, and represent maximum (100%) amount of osteocalcin production. Plates are incubated at 37° C. incubator for 48 hours and supernatants are harvested at the end of incubation. Amounts of osteocalcin in the supernatants are determined by the Glype osteocalcin ELISA kit (Zymed, Cat. No. 99-0054) according to manufacture's protocol. Inhibition of osteocalcin by test compounds is expressed in percentage relative to positive controls. IC50 values of the test compounds are derived by non-lineal curve fitting.

CC(C)(CC(O)(Cn1ccc(=O)c2sccc21)C(F)(F)F)c1cc(-c2cccnc2)ccc1O (centres unmarked) [4-[2-Hydroxy-4-(2-hydroxy-5-pyridin-3-ylphenyl)-4-methyl-2-trifluoromethylpentyl]-4H-thieno[3,2-b]pyridin-7-one]
activity in the GR binding assay [1]: potent activity
inhibition of the vitamin D stimulated production of osteocalcin [2]: inhibit the vitamin D stimulated production of osteocalcin

COc1c(C)cccc1C(C)(C)CC(O)(Cn1ccc(=O)c2sccc21)C(F)(F)F (centres unmarked) [4-[2-Hydroxy-4-(2-methoxy-3-methylphenyl)-4-methyl-2-trifluoromethylpentyl]-4H-thieno[3,2-b]pyridin-7-one]
activity in the GR binding assay [1]: potent activity

COc1ccc(-c2cccnc2)cc1C(C)(C)CC(O)(Cn1ccc(=O)c2sccc21)C(F)(F)F (centres unmarked) [4-[2-Hydroxy-4-(2-methoxy-5-pyridin-3-ylphenyl)-4-methyl-2-trifluoromethylpentyl]-4H-thieno[3,2-b]pyridin-7-one]
activity in the GR binding assay [1]: potent activity

COc1ccccc1C(C)(C)CC(O)(Cn1ccc(=O)c2sccc21)C(F)(F)F (centres unmarked) [4-[2-Hydroxy-4-(2-methoxyphenyl)-4-methyl-2-trifluoromethylpentyl]-4H-thieno[3,2-b]pyridin-7-one]
activity in the GR binding assay [1]: potent activity

CC(C)(CC(O)(Cn1ccc(=O)c2sccc21)C(F)(F)F)c1cc(-c2cncnc2)cc2c1OCC2 (centres unmarked) [4-[2-Hydroxy-4-methyl-4-(5-pyrimidin-5-yl-2,3-dihydrobenzofuran-7-yl)-2-trifluoromethylpentyl]-4H-thieno[3,2-b]pyridin-7-one]
activity in the GR binding assay [1]: potent activity

CC(C)(CC(O)(Cn1ccc(=O)c2sccc21)C(F)(F)F)c1cccc2c1OCC2 (centres unmarked) [4-[4-(2,3-Dihydrobenzofuran-7-yl)-2-hydroxy-4-methyl-2-trifluoromethylpentyl]-4H-thieno[3,2-b]pyridin-7-one]
activity in the GR binding assay [1]: potent activity

Cc1cccc(C(C)(C)CC(O)(Cn2ccc(=O)c3sccc32)C(F)(F)F)c1OC(F)F (centres unmarked) [4-[4-(2-Difluoromethoxy-3-methylphenyl)-2-hydroxy-4-methyl-2-trifluoromethylpentyl]-4H-thieno[3,2-b]pyridin-7-one]
activity in the GR binding assay [1]: potent activity

COc1c(Br)cccc1C(C)(C)CC(O)(Cn1ccc(=O)c2sccc21)C(F)(F)F (centres unmarked) [4-[4-(3-Bromo-2-methoxyphenyl)-2-hydroxy-4-methyl-2-trifluoromethylpentyl]-4H-thieno[3,2-b]pyridin-7-one]
activity in the GR binding assay [1]: potent activity

CC(C)(CC(O)(Cn1ccc(=O)c2sccc21)C(F)(F)F)c1cc(F)ccc1O (centres unmarked) [4-[4-(5-Fluoro-2-hydroxyphenyl)-2-hydroxy-4-methyl-2-trifluoromethylpentyl]-4H-thieno[3,2-b]pyridin-7-one]
activity in the GR binding assay [1]: potent activity
inhibition of the vitamin D stimulated production of osteocalcin [2]: inhibit the vitamin D stimulated production of osteocalcin

COc1ccc(F)cc1C(C)(C)CC(O)(Cn1ccc(=O)c2sccc21)C(F)(F)F (centres unmarked) [4-[4-(5-Fluoro-2-methoxyphenyl)-2-hydroxy-4-methyl-2-trifluoromethylpentyl]-4H-thieno[3,2-b]pyridin-7-one]
activity in the GR binding assay [1]: potent activity

Cc1ccc(F)cc1C(C)(C)CC(O)(Cn1ccc(=O)c2sccc21)C(F)(F)F (centres unmarked) [4-[4-(5-Fluoro-2-methylphenyl)-2-hydroxy-4-methyl-2-trifluoromethylpentyl]-4H-thieno[3,2-b]pyridin-7-one]
activity in the GR binding assay [1]: potent activity

CC(C)(CC(O)(Cn1cc(Br)c(=O)c2sccc21)C(F)(F)F)c1cccc2c1OCC2 (centres unmarked) [6-Bromo-4-[4-(2,3-dihydrobenzofuran-7-yl)-2-hydroxy-4-methyl-2-trifluoromethylpentyl]-4H-thieno[3,2-b]pyridin-7-one]
activity in the GR binding assay [1]: potent activity

CC(C)(CC(O)(Cn1cc(Cl)c(=O)c2sccc21)C(F)(F)F)c1cc(-c2cccnc2)ccc1O (centres unmarked) [6-Chloro-4-[2-hydroxy-4-(2-hydroxy-5-pyridin-3-ylphenyl)-4-methyl-2-trifluoromethylpentyl]-4H-thieno[3,2-b]pyridin-7-one]
activity in the GR binding assay [1]: potent activity
inhibition of the vitamin D stimulated production of osteocalcin [2]: inhibit the vitamin D stimulated production of osteocalcin

CC(C)(CC(O)(Cn1cc(Cl)c(=O)c2sccc21)C(F)(F)F)c1cc(-c2cncnc2)ccc1O (centres unmarked) [6-Chloro-4-[2-hydroxy-4-(2-hydroxy-5-pyrimidin-5-ylphenyl)-4-methyl-2-trifluoromethylpentyl]-4H-thieno[3,2-b]pyridin-7-one]
activity in the GR binding assay [1]: potent activity
inhibition of the vitamin D stimulated production of osteocalcin [2]: inhibit the vitamin D stimulated production of osteocalcin

COc1ccc(-c2cccnc2)cc1C(C)(C)CC(O)(Cn1cc(Cl)c(=O)c2sccc21)C(F)(F)F (centres unmarked) [6-Chloro-4-[2-hydroxy-4-(2-methoxy-5-pyridin-3-ylphenyl)-4-methyl-2-trifluoromethylpentyl]-4H-thieno[3,2-b]pyridin-7-one]
activity in the GR binding assay [1]: potent activity

COc1ccc(-c2cncnc2)cc1C(C)(C)CC(O)(Cn1cc(Cl)c(=O)c2sccc21)C(F)(F)F (centres unmarked) [6-Chloro-4-[2-hydroxy-4-(2-methoxy-5-pyrimidin-5-ylphenyl)-4-methyl-2-trifluoromethylpentyl]-4H-thieno[3,2-b]pyridin-7-one]
activity in the GR binding assay [1]: potent activity

CC(C)(CC(O)(Cn1cc(Cl)c(=O)c2sccc21)C(F)(F)F)c1cc(-c2cccnc2)cc2c1OCC2 (centres unmarked) [6-Chloro-4-[2-hydroxy-4-methyl-4-(5-pyridin-3-yl-2,3-dihydrobenzofuran-7-yl)-2-trifluoromethylpentyl]-4H-thieno[3,2-b]pyridin-7-one]
activity in the GR binding assay [1]: potent activity

CC(C)(CC(O)(Cn1cc(Cl)c(=O)c2sccc21)C(F)(F)F)c1cc(-c2cncnc2)cc2c1OCC2 (centres unmarked) [6-Chloro-4-[2-hydroxy-4-methyl-4-(5-pyrimidin-5-yl-2,3-dihydrobenzofuran-7-yl)-2-trifluoromethylpentyl]-4H-thieno[3,2-b]pyridin-7-one]
activity in the GR binding assay [1]: potent activity

CC(C)(CC(O)(Cn1cc(Cl)c(=O)c2sccc21)C(F)(F)F)c1cccc2c1OCC2 (centres unmarked) [6-Chloro-4-[4-(2,3-dihydrobenzofuran-7-yl)-2-hydroxy-4-methyl-2-trifluoromethylpentyl]-4H-thieno[3,2-b]pyridin-7-one]
activity in the GR binding assay [1]: potent activity
